Experimental data: paper PMC12206033, “Selective inhibition of TRPV3 channel by natural rosmarinic acid and its analogs for alleviation of skin lesions through downregulation of NF-κB pathway” (The Journal of Biological Chemistry, 2025)

Key:
hTRPV3 [1] = biological target: T1, hTRPV3 (Homo sapiens, UniProt Q8NET8); experiment: whole-cell patch-clamp of hTRPV3 currents in HEK293T cells activated by 2-APB; format: cell-based; conditions: for inhibition at 50 µM: HEK-293T, compound 50 μM, agonist 2-APB 50 μM, Fig. 3I, n = 4-5, read-out: inhibition of hTRPV3 currents; for IC50: evoked by 2-APB 50 μM, outward currents at +80 mV, HEK293T, Fig. 3J, n = 5-7, read-out: IC50, inhibition of whole-cell hTRPV3 currents
T1 construct: expressed in transfected cells; host or cells: HEK293T
T1 sequence (Q8NET8 1-790): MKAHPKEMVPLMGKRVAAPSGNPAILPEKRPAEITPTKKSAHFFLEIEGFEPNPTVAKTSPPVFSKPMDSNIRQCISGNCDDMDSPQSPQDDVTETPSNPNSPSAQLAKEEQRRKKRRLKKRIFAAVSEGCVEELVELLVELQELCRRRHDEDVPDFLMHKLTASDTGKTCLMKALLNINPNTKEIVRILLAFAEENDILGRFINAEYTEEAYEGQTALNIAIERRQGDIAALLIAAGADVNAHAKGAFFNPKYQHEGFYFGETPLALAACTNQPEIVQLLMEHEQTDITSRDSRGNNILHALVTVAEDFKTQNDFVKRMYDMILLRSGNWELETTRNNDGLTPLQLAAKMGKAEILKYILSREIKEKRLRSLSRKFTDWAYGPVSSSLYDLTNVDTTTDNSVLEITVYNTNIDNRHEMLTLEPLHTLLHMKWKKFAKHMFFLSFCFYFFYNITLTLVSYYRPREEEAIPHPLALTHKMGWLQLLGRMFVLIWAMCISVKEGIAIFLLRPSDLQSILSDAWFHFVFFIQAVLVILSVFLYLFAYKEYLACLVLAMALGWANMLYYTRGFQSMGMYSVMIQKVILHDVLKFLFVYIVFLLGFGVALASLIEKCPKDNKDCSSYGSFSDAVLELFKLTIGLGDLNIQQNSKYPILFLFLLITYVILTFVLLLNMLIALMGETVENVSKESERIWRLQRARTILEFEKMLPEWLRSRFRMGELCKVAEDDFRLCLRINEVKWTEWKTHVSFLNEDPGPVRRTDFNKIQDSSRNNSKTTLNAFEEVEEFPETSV
Procedure: (§1) HEK293T cell line was obtained from the Cell Resource Center, Peking Union Medical College. HEK293T cells were maintained in Dulbecco’s modified Eagle’s medium (DMEM, Gibco) supplemented with 10% fetal bovine serum at 37 °C with 5% CO2. HEK293T cells were seeded onto glass coverslips 1 day in advance and transiently transfected with […] complementary deoxyribonucleic acids of human TRPV3 (hTRPV3, accession number NM_145068.4), hTRPV1 (accession number NM_080704.3), mTRPV2 (accession number NM_011706.2), hTRPV4 (accession number NM_021625.5), hTRPA1 (accession number NM_007332.3), and hTRPM8 (accession number NM_024080.5) through Lipofectamine 2000 (Invitrogen) following the manufacture’s protocol. The next day, determine the plasmid transfection status by observing green fluorescence based on expression of enhanced GFP as an indicator. All WT or mutant hTRPV3 complementary deoxyribonucleic acid plasmids were confirmed by DNA sequencing. When conducting experiments on HEK293T cells transfected with G573S point mutant TRPV3 plasmid, we replaced culture medium with or without compounds after 4 h of transfection and then observed green fluorescence of HEK293T cell after 10 h. As for the relative fluorescence intensity, we convert the image to 8 bit grayscale using ImageJ (Https://imagej.net/software/fiji/downloads) and set an appropriate threshold value to reduce background noise and enhance the image contrast.
(§2) All patch-clamp recordings were conducted 16 to 24 h after transfection using an EPC10 amplifier powered by PatchMaster software (HEKA) (https://www.heka.com/downloads/downloads_main.html#down_patchmaster) at room temperature. The borosilicate glass pipettes were pulled using a DMZ universal electrode puller (Zeitz-Instruments GmbH) to achieve the resistances of three to 5 MΩ (for whole-cell recordings) or five to 9 MΩ (for inside-out patch recordings). Currents were recorded at a potential ramp from −100 mV to +100 mV for 1000 ms with 1000-ms intervals (for whole-cell recordings) or a persistent potential of −60 mV (inside-out patch recordings). Both pipette solution and bath solution contained (in mM): 130 NaCl, 3 Hepes, and 0.2 EDTA (pH = 7.2–7.4). All recording data were analyzed using Igor Pro (Wave-metrics) (https://www.wavemetrics.com/order/order_igordownloads.htm) and Origin 8.6 (Origin Lab) (https://www.originlab.com/doc/zh/Quick-Help/Download-Installer).

[2] = test system: HEK293T cells expressing G573S-TRPV3; experiment: green fluorescence of live HEK293T cells transfected with gain-of-function mutant GFP-TRPV3-G573S; format: cell-based, human; conditions: compound 20 μM
Procedure: as §1, with “All WT or mutant hTRPV3 complementary deoxyribonucleic acid plasmids were confirmed by DNA sequencing.” left out

[3] = test system: HEK293T cells expressing hTRPV3; experiment: Hoechst 33342/propidium iodide double staining cell death assay; format: cell-based
Procedure: For cell death assay, HEK293T cells transfected with hTRPV3 were seeded in 6-well plates and randomly divided into different groups. TRPV3 and NF-κB inhibitors were added 1 h before the addition of Car. After administration of Car for 1 h, cell death was detected using Hoechst 33342/propidium iodide Double Stain Kit (Solarbio). After staining, cells were resuspended with PBS buffer. Five random view images in each group were taken under a microscope (Eclipse Ti, Nikon) and counted using ImageJ software (National Institutes of Health).

[4] = test system: Car-induced ear swelling and dorsal skin inflammation in mice; experiment: mouse model of ear swelling and dorsal skin inflammation induced by skin sensitizer Car (3%); format: in vivo
Excerpt: Adult C57BL/6J mice (aged 6–8 weeks, weighing 20 ± 2 g) were purchased from the Beijing Vital River Laboratory Animal Technology Co. Ltd. TRPV3-KO mice were purchased from Cyagen Biosciences Inc. All mice were housed in plastic cages with natural poplar wood bedding materials, accommodating three to five mice per cage. The housing environment was maintained at a controlled room temperature of (23 ± 2) °C and humidity of (50 ± 5) %, with 12-h light/dark cycle (lights on at 7:00 AM and off at 7:00 PM). Mice had free access to food and water. All animal test protocols were approved by the Institutional Animal Care and Use Committee of Qingdao University Health Science Center and were conducted in accordance with institutional and national guidelines for the use and care of animals in experiments. All mice were anesthetized with isoflurane (1%–1.5%) using an isoflurane gas anesthesia device and were euthanized under anesthesia.
(§3) Skin sensitizer Car was dissolved in saline solution containing 30% ethanol. The dorsal skin or ear of mice was swabbed with 3% Car for four consecutive days. To investigate the effects of ROSA, it was diluted to concentration of 0.1/1/10 mM with saline and topically applied on the ear and dorsal skin once a day for 4 days. The control group only received swabs with the solvent.

NF-κB p-P65 = conditions: no reference given; read-out: IC50 of NF-κB p-P65 inhibitor; cited from earlier work
hTRPV3 [5] = biological target: T1, hTRPV3; experiment: single-channel inside-out patch recordings of hTRPV3 in HEK293T cells; format: cell-based; conditions: 2-APB 50 μM or Car 300 μM alone, n = 5
Procedure: as §1, with “All WT or mutant hTRPV3 complementary deoxyribonucleic acid plasmids were confirmed by DNA sequencing. When conducting experiments on HEK293T cells transfected with G573S point mutant TRPV3 plasmid, we replaced culture medium with or without compounds after 4 h of transfection and then observed green fluorescence of HEK293T cell after 10 h.” left out
as §2

[6] = test system: TRPV3, IL-6, TNF-α, and p-P65 protein expressions; experiment: Western blot of TRPV3 and NF-κB pathway proteins in mouse ear tissues; format: in vivo; conditions: mouse ear tissues treated with 3% Car; day 5
Procedure: as §3
Skin or ear skin tissues were homogenized in radioimmunoprecipitation assay buffer (Thermo Fisher Scientific) containing protease inhibitors at a ratio of 100:1 per 10 mg tissue and centrifuged at 15,000 rpm for 15 min. The protein concentration was quantified using a bicinchoninic acid kit (Thermo Fisher Scientific), followed by SDS-PAGE for Western blot analysis. Protein transfer was performed at 150 mA for 90 min, and the transferred membranes (Millipore) were incubated with primary antibodies (TRPV3 antibody, 1:1000, TNF-α antibody, 1:1000, IL-6 antibody, 1:2500, P65 antibody, 1:1000 and p-P65 antibody, 1:1000) in 5% skim milk (Becton, Dickinson and Company). […] Images were quantified using the Image Lab software (https://www.bio-rad.com/zh-cn/product/image-lab-software?ID=KRE6P5E8Z).

[7] = CCK-8 cell viability assay; format: cell-based; conditions: human, HEK293T cells expressing hTRPV3, Car 300 μM for 1 h, read-out: cell viability rate, Car alone
Procedure: For cell viability assay, hTRPV3-HEK293T cells were seeded in 96-well plates for 12 to 16 h before exposed to Car in DMEM containing 2% fetal bovine serum for 1 h. TRPV3 and NF-κB inhibitors were added 1 h before the addition of Car. After removing the medium containing chemical compounds, hTRPV3-HEK293T cells were incubated with DMEM containing 10% CCK-8 (TargetMol) for 1 h. Cell viability was then assessed using the Sunrise microplate reader under the light absorbance at 450 nm (TECAN, CH).

[8] = inhibitor 20 μM added 1 h before Car 300 μM
[9] = topical JSH-23 20 μM in 100 μl coapplied with Car for consecutive 4 days, mouse dorsal skin

Structure (SMILES) | inhibition at 50 µM (hTRPV3 [1]) [%] | IC50 (hTRPV3 [1]) [µM] | green fluorescence of live cells [2] | cell death ratio [3, 8] [%] | single-channel open probability, agonist alone (hTRPV3 [5]) | other results
COC(=O)[C@@H](Cc1ccc(O)c(O)c1)OC(=O)/C=C/c1ccc(O)c(O)c1 [MROSA, methyl rosmarinate] | 9 ± 5.2 | 157 ± 34.5 | – | – | – | –
N.N.N.N.N.N.N.N.N.N.N.N.N.N.[Cl-].[Cl-].[Cl-].[Cl-].[Cl-].[Cl-].[O-2].[O-2].[Ru+3].[Ru+3].[Ru+4] [RR, ruthenium red] | – | – | robust green fluorescence | 23 | – | –
Cc1ccc(NCCCc2ccccc2)c(N)c1 [JSH-23] | – | – | robust green fluorescence | 17 | – | dermatitis scores [4, 9]: reduction of dermatitis scores; dorsal skin inflammation [4, 9]: significant alleviation of the dorsal skin inflammation; cell death ratio ([3]; inhibitor 5 μM added 1 h before Car 300 μM): 21%; IC50 (NF-κB p-P65): 7.1 µM
Cc1ccc(C(C)C)cc1O [Car, carvacrol, reference compound] | – | – | – | – | 0.77 ± 0.09 | ear skin inflammation, thickness and ear swelling scores, Car alone ([4]; topical Car for consecutive 4 days, WT mice): ear skin inflammation with significantly increased thickness and ear swelling scores; protein expressions of TRPV3, IL-6, TNF-α, and p-P65, Car alone [6]: upregulated; cell death ratio, Car alone ([3]; Car 300 μM for 1 h, vehicle control 8%): 30%; viability at 1 h, 300 μM [7]: 72%
NCCOB(c1ccccc1)c1ccccc1 [2-APB, 2-aminoethoxydiphenyl borate, reference compound] | – | – | – | – | 0.67 ± 0.05 | –
O=C(/C=C/c1ccc(O)c(O)c1)NCCc1ccc(O)c(O)c1 [CADA, (E)-3-(3,4-dihydroxyphenyl)-N-(2-(3,4-dihydroxyphenyl)ethyl)-2-propenamide] | ~40.1 | 67.7 ± 22.4 | – | – | – | –
